Data set [1] deals with Acetylcholinesterase (Homo sapiens, UniProt P22303). Kind of data set: Inhibition of AChE (unknown origin) using acetylthiocholine as substrate by Ellman's method. A general note: Ellman's reagent forms a yellow product with free thiols.
Data set [2] has as its target cGMP-specific 3',5'-cyclic phosphodiesterase (Homo sapiens, UniProt O76074). Put plainly: Inhibition of human PDE5A preincubated for 30 mins followed by TMB substrate addition by spectrophotometry.
Data set [3] deals with A549. Kind of data set: Cytotoxicity against human A549 cells at 50 ug/ml after 24 hrs by CCK-8 assay. To be noted: a549, 24 h. In kind it is cell-based.

For orientation: IC50 means the midpoint of a concentration-inhibition curve.

Where only a bound is given, the exact number is not on record here.

Acetylcholinesterase, sequence (P22303 whole entry): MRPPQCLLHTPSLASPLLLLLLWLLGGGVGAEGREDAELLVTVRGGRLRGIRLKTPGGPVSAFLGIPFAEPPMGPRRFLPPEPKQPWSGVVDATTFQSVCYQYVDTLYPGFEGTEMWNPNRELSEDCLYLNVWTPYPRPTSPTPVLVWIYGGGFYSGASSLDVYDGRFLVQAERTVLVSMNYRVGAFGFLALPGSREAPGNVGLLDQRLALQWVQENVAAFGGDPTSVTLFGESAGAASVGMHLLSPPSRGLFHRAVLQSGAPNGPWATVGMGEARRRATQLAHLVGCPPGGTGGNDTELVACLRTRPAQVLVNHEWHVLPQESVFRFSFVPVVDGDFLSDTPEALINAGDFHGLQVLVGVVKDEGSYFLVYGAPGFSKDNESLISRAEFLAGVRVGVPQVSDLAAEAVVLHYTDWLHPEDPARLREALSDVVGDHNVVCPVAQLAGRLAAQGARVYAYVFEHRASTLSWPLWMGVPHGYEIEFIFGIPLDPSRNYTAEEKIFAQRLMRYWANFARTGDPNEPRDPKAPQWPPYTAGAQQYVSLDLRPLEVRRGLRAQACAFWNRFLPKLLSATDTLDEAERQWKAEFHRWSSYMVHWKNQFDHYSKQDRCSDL

`COc1ccc(NCc2ccc3c(c2)C(=O)C(=O)N3C(=O)c2ccccc2)cc1`: the IC50 in data set [1] worked out at 0.17 µM; in data set [2], 100 µM.

Regarding `CN1CCN(Cc2ccc3c(c2)C(=O)C(=O)N3C(=O)c2ccccc2)CC1`, the IC50 was 0.0479 µM in data set [1] and greater than 1000 µM in data set [2].

As to `COC(=O)C(=O)c1cc(C)ccc1NC(=O)c1ccccc1`, in data set [1], the IC50 is greater than 1 µM.

On to `O=C(O)CCC(=O)NCc1ccc2c(c1)CC(=O)N2C(=O)c1ccccc1`, for which the IC50 is greater than 1 µM in data set [1] and 17.6 µM in data set [2].

On to `CCN(CC)Cc1ccc(NC(=O)c2ccccc2)c(C(=O)C(=O)N(CC)CC)c1`, for which the IC50 in data set [1] was 0.0447 µM; in data set [2], 158 µM. Also, in data set [3], the Activity result was “Non-Toxic”.

For `Cc1ccc2c(c1)C(=O)C(=O)N2C(=O)c1ccccc1`, the IC50 in data set [1] is greater than 1 µM; in data set [2], 746 µM.

With `Cc1ccc2c(c1)C(=O)C(=O)N2Cc1ccccc1[N+](=O)[O-]`, the values for the IC50 in data set [1] and in data set [2] were 0.2 µM and 200 µM, respectively.

`O=C(Nc1ccc(CN2CCOCC2)cc1C(=O)C(=O)N1C(=O)CCC1=O)c1ccccc1` yielded an IC50 in data set [1] of 0.229 µM.

With `O=C1C(=O)N(Cc2ccccc2[N+](=O)[O-])c2ccc(Br)cc21`, the IC50 in data set [1] worked out at 0.263 µM.

Regarding `O=C1C(=O)N(C(=O)c2ccccc2)c2ccc(CN3CCCCC3)cc21`, the IC50 was determined as 0.0794 µM in data set [1] and 50 µM in data set [2]. Moreover, the Activity entry in data set [3] was “Non-Toxic”.

`O=C1C(=O)N(C(=O)c2ccccc2)c2ccc(CNc3ccc(Br)cc3)cc21` yielded an IC50 in data set [1] of 0.398 µM. That is a sub-micromolar value.

`Cc1ccc2c(c1)CC(=O)N2C(=O)c1ccccc1`: the IC50 is greater than 1 µM in data set [1] and 91.2 µM in data set [2].

As to `Cc1ccc2c(c1)C(=O)C(=O)N2C(=O)N(C)C`, the results for the IC50 in data set [1] and in data set [2] were 0.144 µM and 100 µM, respectively. Further, the Activity entry in data set [3] is reported as “Non-Toxic”.

For `O=C1C(=O)N(Cc2ccc(Br)cc2)c2ccc(Br)cc21`, the half-maximal inhibitory concentration (IC50) was 0.0891 µM in data set [1] and 131 µM in data set [2].

Regarding `Cc1ccc2c(c1)C(=O)C(=O)N2Cc1ccc(Br)cc1`, in data set [1], 0.204 µM corresponded to half-maximal inhibition (IC50).

Values taken from ChEMBL document CHEMBL4052796, “Design, synthesis and biological evaluation of dual acetylcholinesterase and phosphodiesterase 5A inhibitors in treatment for Alzheimer's disease” (Bioorg Med Chem Lett, 2017).
